Assay results from patent US9549909B2, “Method for the treatment of dravet syndrome” (KATHOLIEKE UNIVERSITEIT LEUVEN, priority 2013, dated 2017).

How the values were obtained:
[1] = test system: seizures in Dravet Syndrome patients; assay: Long-term fenfluramine and valproate treatment of Dravet Syndrome patients (Ceulemans et al. data); assay type: in vivo, human
Source text: The following table provides results based on the data presented in Ceulemans et al., Epilepsia (2012) 53(7):1131-1139.

heart valve = assay: Echocardiography monitoring for heart valve defects in subjects treated with fenfluramine; assay type: in vivo, human
Source text: The subjects treated with fenfluramine were monitored using echocardiography for possible heart valve defects.

[2] = test system: self-induced photosensitive seizures; settings: cited from earlier work
refractory epilepsy = settings: children with refractory epilepsy; dose of 0.5 to 1 mg/kg/day; cited from earlier work
[3] = test system: seizures in Dravet Syndrome patients; settings: Combined STICLO-France and Italy; stiripentol and either valproate or clobazam; two months; cited from earlier work
[4] = fenfluramine and valproate, average daily dose 0.34 mg/kg/day for between 1 and 22 years, 0.34 mg/kg/day

SMILES	Types of seizures reduced ([1]; Dravet Syndrome patients, not only photosensitive or self-induced seizures)	>50% Reduction in Seizures (responders) [1, 4] [%]	Seizure-free Patients [1, 4] [%]	Heart valve defects by echocardiography (heart valve)	Response of self-induced photosensitive seizures ([2]; four cases, Aicardi and Gastaut)	Effect on pattern sensitivity-induced seizures resistant to anticonvulsive treatment ([2]; one child, Clemens 1988)	Effect on number of seizures (refractory epilepsy)	Responders - >50% Reduction in the Number of Seizures [3] [%]	Seizure Free Patients [3] [%]
CCNC(C)Cc1cccc(C(F)(F)F)c1 (stereo not drawn) [Fenfluramine, 3-trifluoromethyl-N-ethylamphetamine]	effectively reduced the incidence of all types of seizures	75	66.6	No clinically relevant defects were identified	responded to treatment	successfully terminated these self-induced seizures	reduction in the number of seizures	–	–
CC(C)(C)C(O)/C=C/c1ccc2c(c1)OCO2 (stereo not drawn) [Stiripentol]	–	–	–	–	–	–	–	69.7	38.7
